{"source": "patent US20160154928A1", "about": "“SYSTEMS, METHODS, AND ENVIRONMENT FOR AUTOMATED REVIEW OF GENOMIC DATA TO IDENTIFY DOWNREGULATED AND/OR UPREGULATED GENE EXPRESSION INDICATIVE OF A DISEASE OR CONDITION” (IMMUNEERING CORPORATION, priority 2013, published 2016)", "key": {"SNAP25 expression": {"system": "SNAP25 expression", "assay": "CMAP (Connectivity Map) expression profiles of cultured cells treated with compounds, searched for increased SNAP25 expression (single-sample Wilcox test)", "format": "cell-based", "text": "The CMAP dataset is a large collection of microarray-based transcriptional signatures that includes over 7,000 expression profiles from cultured cells treated with 1,309 compounds. The full CMAP (builds 01 and 02) datasets were obtained from the Broad Institute. […] The output p-values were adjusted for multiple hypothesis testing (FDR p value <0.05)."}, "mouse models of AD": {"system": "mouse models of AD", "settings": "cited from earlier work"}, "female mouse model of AD": {"system": "female mouse model of AD", "settings": "cited from earlier work"}, "NEUROD6 expression": {"system": "NEUROD6 expression", "assay": "CMAP (Connectivity Map) expression profiles of cultured cells treated with compounds, searched for increased NEUROD6 expression (single-sample Wilcox test)", "format": "cell-based", "settings": "for p.val (compounds identified to upregulate enriched NEUROD6 expression): single-sample Wilcox test on CMAP expression profiles, cultured cells after treatment", "text": "The full CMAP (builds 01 and 02) datasets were obtained from the Broad Institute. […] The output p-values were adjusted for multiple hypothesis testing (FDR p value <0.05)."}, "mouse model of AD": {"system": "mouse model of AD", "settings": "cited from earlier work"}}, "note": "Where “and” joins values, the source holds several entries; their conditions need not be identical. Identical values can stand only once."}
{"smiles": "CCCC(CCC)C(=O)O", "note": "[valproic acid]", "values": [{"measurement": "effect on SNAP25 expression", "setting": "SNAP25 expression; CMAP analysis, in words", "result": "significantly elevate SNAP25 expression"}, {"measurement": "Aβ production", "setting": "mouse models of AD", "result": "limit Aβ production"}, {"measurement": "behavioral deficits", "setting": "mouse models of AD", "result": "limit Aβ production and behavioral deficits"}, {"measurement": "loss of neurons", "setting": "mouse models of AD", "result": "protect against loss of neurons"}]}
{"smiles": "O=CC[C@@H](O)[C@H](O)[C@H](O)CO", "note": "[2-deoxy-D-glucose]", "values": [{"measurement": "pathology", "setting": "female mouse model of AD", "result": "reduce pathology"}]}
{"smiles": "O=c1c(-c2ccc(O)cc2)coc2cc(O)cc(O)c12", "note": "[genistein]", "values": [{"measurement": "effect on NEUROD6 expression", "setting": "NEUROD6 expression; CMAP analysis, in words", "result": "significantly elevate expression of NEUROD6"}]}
{"smiles": "CCN1C[C@]2(C)CC[C@H](O)[C@]34C1[C@@H](C[C@H]23)[C@@]1(O)C[C@H](OC)[C@H]2C[C@@H]4[C@@H]1[C@H]2O", "note": "[karakoline]", "values": [{"measurement": "cognitive function", "setting": "mouse model of AD", "result": "improve cognitive function"}]}
{"smiles": "C=C1C[C@@H](O)[C@H](/C=C/[C@@H](O)C(C)(C)CCCC)[C@H]1C/C=C\\CCCC(=O)O", "note": "[meteneprost]", "values": [{"measurement": "p.val (compounds identified to upregulate enriched NEUROD6 expression)", "setting": "NEUROD6 expression", "result": "2.05E−04"}]}
{"smiles": "CC(C)c1ccc2c(c1)c(SC(C)(C)C)c(CC(C)(C)C(=O)O)n2Cc1ccc(Cl)cc1", "note": "[MK-886]", "values": [{"measurement": "p.val (compounds identified to upregulate enriched NEUROD6 expression)", "setting": "NEUROD6 expression", "result": "2.46E−04"}]}
{"smiles": "C[C@@H]1C[C@H]2O[C@@H]2/C=C\\C=C\\C(=O)Cc2c(Cl)c(O)cc(O)c2C(=O)O1", "note": "[monorden]", "values": [{"measurement": "p.val (compounds identified to upregulate enriched NEUROD6 expression)", "setting": "NEUROD6 expression", "result": "2.17E−04 and 2.82E−04"}]}
{"smiles": "CN(C(=O)C(Cl)Cl)c1ccc(O)cc1", "note": "[diloxanide]", "values": [{"measurement": "p.val (compounds identified to upregulate enriched SNAP25 expression)", "setting": "SNAP25 expression; single-sample Wilcox test on CMAP expression profiles, cultured cells after treatment", "result": "1.28E−04"}]}
